Data as given in PubChem BioAssay AID270 (DTP/NCI, 2004).
Values joined by “and” are separate entries in the source; they are usually repeats but may differ in a detail not shown here. Equal values may be shown once. Inconclusive results are not listed.

Test system: BDF1 mice, s.c. Lewis lung carcinoma, T/C %
Experiment: NCI In Vivo Anticancer Drug Screen. Data for tumor model Lewis Lung Carcinoma (subcutaneous) in B6D2F1 (BDF1) mice
In short: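 First, mice carry a transplantable tumor. Next, groups receive either compound or vehicle. Finally, survival or tumor dimensions in the dosed animals are divided by the corresponding control figure.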

`CCOC(=O)NP(=O)(N1CC1)N1CC1` was tested, and the T/C (endpoint: mean tumor weight, dose: 2.5 mg/kg/injection, schedule: Q01DX011 (ip), vehicle: saline, higher = larger tumour) was 61 % of control and 75 % of control and the T/C (endpoint: mean tumor weight, dose: 5.0 mg/kg/injection, schedule: Q01DX011 (ip), vehicle: saline, higher = larger tumour) was 35 % of control and 56 % of control.
In the case of `O=C(O)C1(NO)CCCC1`, the T/C (endpoint: mean tumor weight, dose: 55.0 mg/kg/injection, schedule: Q01DX011 (ip), vehicle: saline, higher = larger tumour) is reported as 73 % of control, the T/C (endpoint: mean tumor weight, dose: 83.0 mg/kg/injection, schedule: Q01DX011 (ip), vehicle: saline, higher = larger tumour) is reported as 29 % of control and the T/C (endpoint: mean tumor weight, dose: 125.0 mg/kg/injection, schedule: Q01DX011 (ip), vehicle: saline, higher = larger tumour) is reported as 27 % of control.
In the case of `O=c1[nH]c(=O)c2[nH]cnc2[nH]1`, the T/C (endpoint: mean tumor weight, dose: 12.5 mg/kg/injection, schedule: Q01DX011 (ip), vehicle: saline, higher = larger tumour) is reported as 97 % of control, the T/C (endpoint: mean tumor weight, dose: 25.0 mg/kg/injection, schedule: Q01DX011 (ip), vehicle: saline, higher = larger tumour) is reported as 73 % of control and the T/C (endpoint: mean tumor weight, dose: 50.0 mg/kg/injection, schedule: Q01DX011 (ip), vehicle: saline, higher = larger tumour) is reported as 75 % of control and 76 % of control. The T/C (endpoint: mean tumor weight, dose: 100.0 mg/kg/injection, schedule: Q01DX011 (ip), vehicle: saline, higher = larger tumour) was 118 % of control and the T/C (endpoint: mean tumor weight, dose: 200.0 mg/kg/injection, schedule: Q01DX011 (ip), vehicle: saline, higher = larger tumour) was 109 % of control.
For `Cc1cc(O)c2cc3c(O)c(O)ccc3cc2c1`, the T/C (endpoint: mean tumor weight, dose: 0.25 mg/kg/injection, schedule: Q01DX011 (ip), vehicle: saline, higher = larger tumour) was 86 % of control, the T/C (endpoint: mean tumor weight, dose: 0.5 mg/kg/injection, schedule: Q01DX011 (ip), vehicle: saline, higher = larger tumour) was 116 % of control and the T/C (endpoint: mean tumor weight, dose: 1.0 mg/kg/injection, schedule: Q01DX011 (ip), vehicle: saline, higher = larger tumour) was 62 % of control. The T/C (endpoint: mean tumor weight, dose: 2.0 mg/kg/injection, schedule: Q01DX011 (ip), vehicle: saline, higher = larger tumour) was 31 % of control and 52 % of control and the T/C (endpoint: mean tumor weight, dose: 4.0 mg/kg/injection, schedule: Q01DX011 (ip), vehicle: saline, higher = larger tumour) was 36 % of control.
For `CC[CH2][Pb]([CH2]CC)([CH2]CC)[O]C(=O)C(Cl)(Cl)Cl`, the T/C (endpoint: median survival time, dose: 0.19 mg/kg/injection, schedule: Q01DX009 (ip), vehicle: saline with Tween-80, higher = longer survival) was 101 % of control, the T/C (endpoint: median survival time, dose: 0.38 mg/kg/injection, schedule: Q01DX009 (ip), vehicle: saline with Tween-80, higher = longer survival) was 94 % of control and the T/C (endpoint: median survival time, dose: 0.75 mg/kg/injection, schedule: Q01DX009 (ip), vehicle: saline with Tween-80, higher = longer survival) was 90 % of control. The T/C (endpoint: median survival time, dose: 1.5 mg/kg/injection, schedule: Q01DX009 (ip), vehicle: saline with Tween-80, higher = longer survival) was 103 % of control, the T/C (endpoint: median survival time, dose: 3.0 mg/kg/injection, schedule: Q01DX009 (ip), vehicle: saline with Tween-80, higher = longer survival) was 106 % of control and the T/C (endpoint: median survival time, dose: 6.0 mg/kg/injection, schedule: Q01DX009 (ip), vehicle: saline with Tween-80, higher = longer survival) was 106 % of control.
With `CS(=O)(=O)OCCCCOS(C)(=O)=O` the T/C (endpoint: mean tumor weight, dose: 12.5 mg/kg/injection, schedule: Q01DX011 (ip), vehicle: carboxymethylcellulose (CMC), higher = larger tumour) was 91 % of control and 104 % of control, the T/C (endpoint: median survival time, dose: 10.0 mg/kg/injection, schedule: Q01DX009 (ip), vehicle: Klucel (hydroxypropylcellulose) (HPC), higher = longer survival) was 94 % of control and the T/C (endpoint: median survival time, dose: 10.0 mg/kg/injection, schedule: Q01DX009 (ip), vehicle: saline with Tween-80, higher = longer survival) was 100 % of control. The T/C (endpoint: median survival time, dose: 20.0 mg/kg/injection, schedule: Q01DX009 (ip), vehicle: saline with Tween-80, higher = longer survival) was 93 % of control, the T/C (endpoint: median survival time, dose: 40.0 mg/kg/injection, schedule: Q01DX009 (ip), vehicle: Klucel (hydroxypropylcellulose) (HPC), higher = longer survival) was 92 % of control and the T/C (endpoint: median tumor weight (est.), dose: 10.0 mg/kg/injection, schedule: Q01DX009 (ip), vehicle: saline with Tween-80, higher = larger tumour) was 86 % of control. The T/C (endpoint: median tumor weight (est.), dose: 20.0 mg/kg/injection, schedule: Q01DX009 (ip), vehicle: saline with Tween-80, higher = larger tumour) was 80 % of control and the T/C (endpoint: median tumor weight (est.), dose: 40.0 mg/kg/injection, schedule: Q01DX009 (ip), vehicle: saline with Tween-80, higher = larger tumour) was 45 % of control.
`Nc1nc(=O)n(C2CC(O)C(CO)O2)cc1Br` (centres undefined) was tested, and the T/C (endpoint: mean tumor weight, dose: 50.0 mg/kg/injection, schedule: Q01DX011 (ip), vehicle: carboxymethylcellulose (CMC), higher = larger tumour) was 65 % of control, the T/C (endpoint: mean tumor weight, dose: 100.0 mg/kg/injection, schedule: Q01DX011 (ip), vehicle: carboxymethylcellulose (CMC), higher = larger tumour) was 55 % of control and the T/C (endpoint: mean tumor weight, dose: 200.0 mg/kg/injection, schedule: Q01DX011 (ip), vehicle: carboxymethylcellulose (CMC), higher = larger tumour) was 64 % of control. For the same molecule, the T/C (endpoint: mean tumor weight, dose: 400.0 mg/kg/injection, schedule: Q01DX011 (ip), vehicle: carboxymethylcellulose (CMC), higher = larger tumour) was 88 % of control and the T/C (endpoint: mean tumor weight, dose: 800.0 mg/kg/injection, schedule: Q01DX011 (ip), vehicle: carboxymethylcellulose (CMC), higher = larger tumour) was 34 % of control.
In the case of `COc1ccc(NC(=O)N(CCCl)N=O)cc1OC`, the T/C (endpoint: median survival time, dose: 1.56 mg/kg/injection, schedule: Q01DX009 (ip), vehicle: Klucel (hydroxypropylcellulose) (HPC), higher = longer survival) is reported as 97 % of control, the T/C (endpoint: median survival time, dose: 3.12 mg/kg/injection, schedule: Q01DX009 (ip), vehicle: Klucel (hydroxypropylcellulose) (HPC), higher = longer survival) is reported as 100 % of control and the T/C (endpoint: median survival time, dose: 6.25 mg/kg/injection, schedule: Q01DX009 (ip), vehicle: Klucel (hydroxypropylcellulose) (HPC), higher = longer survival) is reported as 106 % of control. The T/C (endpoint: median survival time, dose: 12.5 mg/kg/injection, schedule: Q01DX009 (ip), vehicle: Klucel (hydroxypropylcellulose) (HPC), higher = longer survival) was 101 % of control and the T/C (endpoint: median survival time, dose: 25.0 mg/kg/injection, schedule: Q01DX009 (ip), vehicle: Klucel (hydroxypropylcellulose) (HPC), higher = longer survival) was 107 % of control.
